Where a chain is given by its changes, count along the chain named. Like-named read-outs stand apart in the source and are kept apart here.
Tests used:
Assay in all cases: PapG Luminex ligand binding at equilibrium
[1] = target: T1, E. coli CFT073 PapG-II lectin domain PapGLD variant N96S G75A, SEQ ID NO: 19 (Escherichia coli, UniProt A0A0H2VAQ6, G95A/N116S); details: HEPES pH 7.4, 4° C. overnight
T1 sequence (A0A0H2VAQ6 with tags, fused parts or gaps G95A/N116S): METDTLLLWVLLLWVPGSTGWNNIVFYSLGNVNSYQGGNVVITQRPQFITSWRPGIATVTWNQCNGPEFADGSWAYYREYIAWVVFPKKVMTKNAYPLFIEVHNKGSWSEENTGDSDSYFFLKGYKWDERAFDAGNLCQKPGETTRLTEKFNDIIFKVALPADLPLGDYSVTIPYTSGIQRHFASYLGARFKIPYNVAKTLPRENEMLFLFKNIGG
Procedure: (§1) To determine the ability of PapGLD mutants to bind the porcine derived globotetraosyl ceramide ligand GalNAc-Gal-Gal-Glc-ceramide (GbO4), a Luminex ligand binding assay was developed. Surfactant Protein-A (SP-A) was coupled to the surface of MagPlex beads by EDC/NHS, to capture the lipid tail of the globotetraosyl ceramide. The Globotetraosyl ceramide/SP-A beads were incubated with an eight-point threefold titration of PapG in a 96 well flat bottom white plate with final volume of 100 microliters of 50 mM HEPES PH 7.4, 10 mM NaCl, 0.0005% Tween 20 shaking at 300 rpm, 4° C. overnight. After 20-24 hours the ligand binding plates were read on a FlexMap 3D plate reader for measurement of well-bead region specific MFI. Ligand binding equilibrium dissociation constants (Kd) were calculated assuming one site specific binding and interpolated using non-linear curve fitting (GraphPad Prism) as the ligand concentration needed to achieve half-maximal binding. The Luminex derived apparent Kd values are based on approximately fifty bead counts per assay sample.
(§2) To determine Luminex ligand binding affinities of PapG mutants for the synthetic globoside ligand Gal-Glc-phenoxy-octyl-amine (GbO2Mpo), a Luminex ligand binding assay was developed based on the direct coupling of the amine reactive globoside ligand to the EDC/NHS activated carboxylic surface of MagPlex beads. Synthesis of GbO2Mpo ligand with an octyl amine linker (for coupling to beads) was performed via methods described previously. The GbO2Mpo beads were incubated with an 8-point, threefold titration of PapG in a 96-well flat bottom white plate with final volume of 100 μl of 50 mM HEPES pH 7.4, 10 mM NaCl, 0.0005% Tween 20 shaking at 300 rpm, 4° C. overnight. After 20-24 hours the ligand binding plates were read on a FlexMap 3D plate reader for measurement of well-bead region specific MFI.
(§3) Binding of PapG proteins to GbO2 or GbO4 ligands was evaluated using a Luminex platform wherein ligands were coupled to MagPlex beads via surfactant protein A (for […]) or directly using […] conjugation (for […]). This assay was used to rank order binding affinities of the mutants, reported as Kd values interpolated from protein antigen titration curves (Table 7).

[2] = target: T2, E. coli CFT073 full-length donor strand complemented PapG-II, PapGDSF variant N96S N242S N286S K172A, SEQ ID NO: 26 (Escherichia coli, UniProt A0A0H2VAQ6, K192A/N116S/N262S/N306S); details: for Kd: HEPES pH 7.4, 4° C. overnight
T2 construct: mouse IgGK signal peptide, C-terminal 8xHis, ExpiCHO, purified
T2 sequence (A0A0H2VAQ6 with tags, fused parts or gaps N116S/K192A/N262S/N306S): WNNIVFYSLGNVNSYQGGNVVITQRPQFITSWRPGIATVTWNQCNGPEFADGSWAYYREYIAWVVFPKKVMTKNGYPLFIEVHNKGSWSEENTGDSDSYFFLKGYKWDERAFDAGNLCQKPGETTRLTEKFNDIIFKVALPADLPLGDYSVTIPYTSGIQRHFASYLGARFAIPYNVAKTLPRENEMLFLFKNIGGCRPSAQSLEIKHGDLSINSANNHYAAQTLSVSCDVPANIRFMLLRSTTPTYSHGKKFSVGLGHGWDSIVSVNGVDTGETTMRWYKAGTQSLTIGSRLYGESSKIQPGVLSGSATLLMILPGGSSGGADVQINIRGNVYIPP
Procedure: as §1, §2, §3

[3] = target: T3, E. coli CFT073 PapG-II lectin domain PapGLD variant N96S G18A, SEQ ID NO: 18 (Escherichia coli, UniProt A0A0H2VAQ6, G38A/N116S); details: HEPES pH 7.4, 4° C. overnight
T3 sequence (A0A0H2VAQ6 with tags, fused parts or gaps G38A/N116S): T1 sequence (A0A0H2VAQ6 with tags, fused parts or gaps G95A/N116S) with G38A, A95G
Procedure: as §1, §2, §3

[4] = target: T4, E. coli CFT073 PapG-II lectin domain PapGLD variant N96S G122A, SEQ ID NO: 20 (Escherichia coli, UniProt A0A0H2VAQ6, G142A/N116S); details: for Kd: HEPES pH 7.4, 4° C. overnight
T4 sequence (A0A0H2VAQ6 with tags, fused parts or gaps N116S/G142A): T1 sequence (A0A0H2VAQ6 with tags, fused parts or gaps G95A/N116S) with A95G, G142A
Procedure: as §1, §2, §3

[5] = target: T5, E. coli CFT073 full-length donor strand complemented PapG-II, PapGDSF N96S N242S N286S (Escherichia coli, UniProt A0A0H2VAQ6, N116S/N262S/N306S); details: HEPES pH 7.4, 4° C. overnight
T5 construct: mouse IgGK signal peptide, C-terminal 8xHis, ExpiCHO, purified
T5 sequence (A0A0H2VAQ6 with tags, fused parts or gaps N116S/N262S/N306S): T2 sequence (A0A0H2VAQ6 with tags, fused parts or gaps N116S/K192A/N262S/N306S) with A172K
Procedure: as §1, §2, §3

[6] = GbO2Mpo beads, read-out: Kd (GbO2)
[7] = GbO4 beads, read-out: Kd (GbO4)

| Substance | Kd [1, 6] | binding to GbO2 (in words) [2] | Kd [2, 6] | Kd [3, 6] | Kd [4, 6] | Kd [5, 6] | Kd [1, 7] | binding to GbO4 (in words) [2] | Kd [2, 7] | Kd [3, 7] | binding to GbO4 (in words) [4] | Kd [4, 7] | Kd [5, 7] |
| --- | --- | --- | --- | --- | --- | --- | --- | --- | --- | --- | --- | --- | --- |
| Gal-Glc-phenoxy-octyl-amine [GbO2] | 2.2 nM | no binding was detected | > 300 nM | 1.8 nM | 1.4 nM | 2.2 nM | – | – | – | – | – | – | – |
| GalNAc-Gal-Gal-Glc-ceramide [GbO4] | – | – | – | – | – | – | > 10 nM | no binding was detected | > 300 nM | > 10 nM | reduced binding | > 300 nM | 3 nM |

Source: patent US20260061042A1, “POLYNUCLEOTIDE COMPOSITIONS AND USES THEREOF” (Pfizer Inc., priority 2024, published 2026)
